Test results taken from publication PMC10383801 (Pharmaceutics, 2023).

What was measured:
[1] = stated without reference; cited from earlier work
Excerpt: HIP of peptides with surfactants is an efficient tool to enhance its lipophilic characteristics. […] These six positively charged amino acids (two Histidine, one Arginine, one Lysine and two N-terminal amino aci ...

Solubility in n-octanol = format: physicochemical; details: insulin measured spectrophotometrically at 270 nm, sentence also cites refs 14, 15
Protocol: After 4 h of magnetic stirring, the mixture was centrifuged for 30 min at 5000 rpm.

diabetic rats = assay: Antidiabetic effect study in diabetic rats; format: in vivo; details: streptozotocin-induced diabetic rats; for reduction in blood glucose level (in words): 5 rats per group, glucometer, 0-8 h
Protocol: Glucose lowering effect of orally administered optimized SMEDDS was monitored in diabetic rats. Study was performed with the approval Pharmacy Ethical Committee, Bahauddin Zakariya University, Multan, Pakistan (249/PEC/2023 dated 25 March 2023). Diabetes was introduced in rats weighing 220–240 g by injecting streptozotocin solution at the dose of (45 mg/kg body weight) intraperitoneally. Fasting blood glucose (FBG) level of all the rats was measured after 3 days using glucometer (AccuChek Performa, Hoffman-La Roche, Basel, Switzerland). Rats with FBG level 200–250 mg/dL were considered diabetic and were included in the study. All rats were fasted over night before experiment and start of treatment. Diabetic rats were divided randomly in 5 groups with 5 rats per group. […] Blood samples were collected at regular time intervals, i.e., 0, 0.5, 1, 1.5, 2, 3, 4, 6, and 8 h and measured for hypoglycemic effects using glucometer.

## Human insulin
[1]
  isoelectric point: 5.35–5.45
Solubility in n-octanol
  solubility in n-octanol: ~17 µg/mL
Diabetic rats; oral, 50 IU/kg insulin equivalent
  reduction in blood glucose level (in words): negligible anti-diabetic effect
Diabetic rats; subcutaneous, 5 IU/kg
  reduction in blood glucose level (in words): Maximum reduction in blood glucose level
Diabetic rats; subcutaneous, 5 IU/kg, entire duration of the experiment
  duration of glucose lowering effect: up to 8 h
